Assay results reported in patent US11578056B2, “Solid forms comprising (S)-2-(2,6-dioxopiperidin-3-yl)-4-((2-fluoro-4-((3-morpholinoazetidin-1-yl)methyl)benzyl)amino)isoindoline-1,3-dione and salts thereof, and compositions comprising and methods of using the same” (Celgene Corporation, priority 2019, dated 2023).

How the values were obtained:
Assay in all cases: Hematological cell line viability/apoptosis flow cytometry assay
Format in all cases: cell-based
SVSL cell line = settings: SVSL (MZL, SMZL), 120 h
Method: (§1) Cell Proliferation and Viability Assay Using Hematological Cell Lines: The following exemplary anti-proliferative assay uses exemplary hematological cell lines in the following. The in vitro growth inhibitory activity of Compound 1 described herein was evaluated using a 384-well flow cytometry assay.
(§2) The cell lines were plated in 384-well flat bottom plates and assessed with increasing concentrations of compound ranging from 0.00015 to 10 μM or dimethyl sulfoxide (DMSO) control. The final concentration of DMSO was 0.1% (v/v). Following the addition of Compound 1 or DMSO and incubation for 120 hours, cell number and cell death were analyzed by flow cytometry (Attune®, Thermo Fisher) using Annexin V and the live-cell impermeant DNA dye, DRAQ7. Phosphatidylserine translocates from the inner layer to the outer layer of the cell membrane early in apoptosis and Annexin V binds to the exposed phosphatidylserine found on the surface of an apoptotic cell. The vital dye DRAQ7 is excluded by intact live cells and only stains cells that have died as a result of apoptosis or necrosis.
(§3) Flow cytometry data analysis was then performed using the Flow Jo_v10 software to determine the number of viable cells (Annexin V and DRAQ7 double negative staining cells) and percentage of apoptotic cells (Annexin V positive cells) for each condition. The live cell count for every concentration was normalized to the DMSO control (considered as 100%) to calculate the percentage of viable cells remaining after treatment and graphed using GraphPad Prism 7.03. The IC50 (50% inhibitory concentration) and Emax (maximum efficacy achieved) values were then calculated by performing nonlinear regression curve fitting using log(inhibitor) vs. normalized response—variable slope analysis on GraphPad Prism 7.03. Area under the curve (AUC) was calculated by performing area under curve analysis on GraphPad Prism 7.03. Similarly, for apoptosis analysis, the percentage of apoptosis combining both “early” (Annexin V positive and DRAQ7 negative) and “late” apoptosis (Annexin V and DRAQ7 positive) cell gates relative to DMSO was graphed using GraphPad Prism 7.03. The AUC, EC50 (concentration of compound that produces half-maximal apoptosis response) and Ymax (maximal percentage of apoptosis achieved) values from apoptosis curves were calculated by performing area under curve analysis and nonlinear regression curve fitting using log(agonist) vs. normalized response—Variable slope analysis on GraphPad Prism 7.03.
(§4) Dose-response proliferation curves for the panel of hematological cell lines and non-linear curve-fit regression were used to determine IC50, AUC, and Emax for % viable cells (Emax for viability varies between 100 at low doses and 0 at high doses, which corresponds to inhibition of all viable cells), and dose-response apoptosis curves were used to determine the EC50, AUC, and Ymax for % apoptosis (Ymax for apoptosis varies from 0 at low doses and 100 at higher doses which corresponds to death of all cells). Tumor cells were exposed to serial dilutions (0.00015 to 10 μM) of Compound 1 or dimethyl sulfoxide (DMSO) control for 5 days. Viability and apoptosis for all cell lines was determined by Annexin V/7-aminoactinomycin D (7-AAD) flow cytometry.

WSU-DLCL cell line = settings: WSU-DLCL (DLBCL GCB), 120 h
Method: as §1, §2, §3, §4

DB cell line = settings: 120 h
Method: as §1, §2, §3, §4

WSU-DLCL2 cell line = settings: WSU-DLCL2 (DLBCL GCB); 120 h
Method: as §1, §2, §3, §4

VAL cell line = settings: VAL (DLBCL), 120 h
Method: as §1, §2, §3, §4

I83-E95 cell line = settings: I83-E95 (CLL), 120 h
Method: as §1, §2, §3, §4

Pfeiffer cell line = settings: Pfeiffer (DLBCL GCB); 120 h
Method: as §1, §2, §3, §4

OCI-LY19 cell line = settings: OCI-LY19 (DLBCL GCB); 120 h
Method: as §1, §2, §3, §4

SU-DHL-10 cell line = settings: SU-DHL-10 (DLBCL GCB); 120 h
Method: as §1, §2, §3, §4

OCI-LY18 cell line = settings: OCI-LY18 (DLBCL); 120 h
Method: as §1, §2, §3, §4

WA-C3-CD5+ cell line = settings: WA-C3-CD5+ (CLL), 120 h
Method: as §1, §2, §3, §4

U-2946 cell line = settings: U-2946 (DLBCL), 120 h
Method: as §1, §2, §3, §4

Rec-1 cell line = settings: Rec-1 (MCL); 120 h
Method: as §1, §2, §3, §4

O=C1CC[C@H](N2C(=O)c3cccc(NCc4ccc(CN5CC(N6CCOCC6)C5)cc4F)c3C2=O)C(=O)N1 [Compound 1, (S)-2-(2,6-dioxopiperidin-3-yl)-4-((2-fluoro-4-((3-morpholinoazetidin-1-yl)methyl)benzyl)amino)isoindoline-1,3-dione]
% Viable Cells AUC (SVSL cell line): 368.4
% Viable Cells Emax (SVSL cell line): 34.07%
Apoptosis AUC (SVSL cell line): 340.2
Apoptosis Ymax (SVSL cell line): 35.5%
EC50 (SVSL cell line): 2.84 nM
IC50 (SVSL cell line; read-out: % Viable Cells IC50): 95.2 nM
% Viable Cells AUC (WSU-DLCL cell line): 341.9
% Viable Cells Emax (WSU-DLCL cell line): 27.83%
Apoptosis AUC (WSU-DLCL cell line): 565.1
Apoptosis Ymax (WSU-DLCL cell line): 59.91%
EC50 (WSU-DLCL cell line): 18 nM
IC50 (WSU-DLCL cell line; read-out: % Viable Cells IC50): 142 nM
% Viable Cells AUC (DB cell line): 941.4
% Viable Cells Emax (DB cell line): 89.46%
Apoptosis AUC (DB cell line): 80.31
Apoptosis Ymax (DB cell line): 11.62%
IC50 (DB cell line; Homo sapiens, read-out: % Viable Cells IC50): > 10000 nM
% Viable Cells AUC (WSU-DLCL2 cell line): 36.7
% Viable Cells Emax (WSU-DLCL2 cell line): 1.387%
Apoptosis AUC (WSU-DLCL2 cell line): 858.9
Apoptosis Ymax (WSU-DLCL2 cell line): 92.1%
% Viable Cells AUC (VAL cell line): 14.62
% Viable Cells Emax (VAL cell line): 0.9632%
Apoptosis AUC (VAL cell line): 936.7
Apoptosis Ymax (VAL cell line): 95.68%
EC50 (VAL cell line): 0.605 nM
IC50 (VAL cell line; read-out: % Viable Cells IC50): 0.57 nM
% Viable Cells AUC (I83-E95 cell line): 259.2
% Viable Cells Emax (I83-E95 cell line): 21.6%
Apoptosis AUC (I83-E95 cell line): 358.4
Apoptosis Ymax (I83-E95 cell line): 40.69%
EC50 (I83-E95 cell line): 61.1 nM
IC50 (I83-E95 cell line; read-out: % Viable Cells IC50): 17.3 nM
% Viable Cells AUC (Pfeiffer cell line): 313.5
% Viable Cells Emax (Pfeiffer cell line): 24.49%
Apoptosis AUC (Pfeiffer cell line): 493.3
Apoptosis Ymax (Pfeiffer cell line): 51.82%
% Viable Cells AUC (OCI-LY19 cell line): 72.49
% Viable Cells Emax (OCI-LY19 cell line): 3.228%
Apoptosis AUC (OCI-LY19 cell line): 706.2
Apoptosis Ymax (OCI-LY19 cell line): 80.91%
% Viable Cells AUC (SU-DHL-10 cell line): 10.36
% Viable Cells Emax (SU-DHL-10 cell line): 0.6716%
Apoptosis AUC (SU-DHL-10 cell line): 903
Apoptosis Ymax (SU-DHL-10 cell line): 92.27%
% Viable Cells AUC (OCI-LY18 cell line): 1.965
% Viable Cells Emax (OCI-LY18 cell line): 0.05973%
Apoptosis AUC (OCI-LY18 cell line): 965.2
Apoptosis Ymax (OCI-LY18 cell line): 97.44%
% Viable Cells AUC (WA-C3-CD5+ cell line): 474.8
% Viable Cells Emax (WA-C3-CD5+ cell line): 44.2%
Apoptosis AUC (WA-C3-CD5+ cell line): 162.9
Apoptosis Ymax (WA-C3-CD5+ cell line): 17.47%
EC50 (WA-C3-CD5+ cell line): 52.4 nM
IC50 (WA-C3-CD5+ cell line; read-out: % Viable Cells IC50): 530 nM
% Viable Cells AUC (U-2946 cell line): 45.47
% Viable Cells Emax (U-2946 cell line): 0.4821%
Apoptosis AUC (U-2946 cell line): 762.6
Apoptosis Ymax (U-2946 cell line): 93.34%
EC50 (U-2946 cell line): 192 nM
IC50 (U-2946 cell line; read-out: % Viable Cells IC50): 4.6 nM
% Viable Cells AUC (Rec-1 cell line): 281.8
% Viable Cells Emax (Rec-1 cell line): 21.04%
Apoptosis AUC (Rec-1 cell line): 508.5
Apoptosis Ymax (Rec-1 cell line): 57.27%
